The source of these data is patent publication US20240300886A1, “ARYLCYCLOHEXYLAMINE DERIVATIVES AND THEIR USE IN THE TREATMENT OF PSYCHIATRIC DISORDERS” (GILGAMESH PHARMACEUTICALS, INC., priority 2021, published 2024).

Where two headings read alike, the source gives them in different places.

For data set [1], the system named is immobility time in the FST. The data set can be described thus: Forced swim test (FST) in rats. Format: in vivo, Sprague-Dawley rats. The following applies: s.c., 23.5-h pre-treatment time. The protocol: Disclosed compounds were tested in the forced swim test (FST) in rats with a 23.5-h pre-treatment time according to the following procedures.
Animals. Male Sprague-Dawley rats, aged 8-10 weeks, were used in the experiments. Animals were housed in groups of 2 under controlled temperature (22±3° C.) and relative humidity (30-70%) conditions, with 12-hour light/dark cycles, and with ad libitum food and water. All efforts were made to minimize suffering.
Drugs and Drug Administration. Test compounds, saline vehicle, and the positive control desipramine were administered subcutaneously (s.c.), with doses calculated based on the freebase. Normal saline was used as the vehicle for compounds provided as the HCl salt, while saline acidified with 1-2 molar equivalents of HCl was used as the vehicle for compounds provided as the freebase (to form the soluble HCl salt in situ). All compounds were administered at a volume of 5 mL/kg. Test compounds and vehicle were administered 0.5 h after the start of the training swim (Swim 1) and 23.5 h before the test swim (Swim 2). […]
Behavioral scoring was conducted by observers who were blind to the treatment groups. Animals were continuously observed during Swim 2 and the total time spent engaging in the following behaviors was recorded: immobile, swimming, and climbing. […]

Data set [2] in a line: Oral bioavailability in rats, Method B (plasma and brain PK). Format: in vivo, Sprague Dawley rats. Particulars: for half-life / Cmax / AUC(0-inf): male, Sprague Dawley; for half-life / Cmax / AUC(0-inf) / AUC0-inf (iv) / AUC0-inf (po) / F: Method B; for AUC(0-inf) / AUC0-inf (iv) / AUC0-inf (po): values represent AUC0-last; for F: 1 mg/kg. The protocol: Animals. Male Sprague Dawley rats were used in these studies. Animals were randomly assigned to treatment groups and were fasted for 4 h before dosing.
Drugs. Test compounds were dissolved in a vehicle consisting of normal saline (for compounds used as the HCl salt) or normal saline slightly acidified with aq. HCl (for freebase compounds). They were then administered intravenously (iv) or orally (po) at a dose of […] (calculated based on freebase), as indicated, and at a volume of 5 mL/kg body weight. Compounds were tested as the racemates or pure enantiomers, as indicated.
Sample Collection and Bioanalysis. Blood samples (approximately 60 μL) were collected under light isoflurane anesthesia (Surgivet®) from the retro orbital plexus at 0.08, 0.25, 0.5, 1, 2, 4, 8, and 24 h (4 animals per time point). Immediately after blood collection, plasma was harvested by centrifugation at 4,000 rpm for 10 min at 4° C. and samples were stored at −70±10° C. until bioanalysis. Following blood collection, animals were immediately sacrificed, the abdominal vena-cava was cut open, and the whole body was perfused from the heart using 10 mL of normal saline, and brain samples were collected from all animals. After isolation, brain samples were rinsed three times in ice-cold normal saline (for 5-10 seconds/rinse using ˜-5-10 mL normal saline in disposable petri dish for each rinse) and dried on blotting paper. Brain samples were homogenized using ice-cold phosphate-buffered saline (pH 7.4). Total homogenate volume was three times the tissue weight. All homogenates were stored at −70±10° C. until bioanalysis. For bioanalysis, 25 μL aliquots of plasma/brain study samples or spiked plasma/brain calibration standards were added to individual pre-labeled micro-centrifuge tubes followed by 100 μL of an internal standard solution (glipizide, 500 ng/mL in acetonitrile) except for blanks, where 100 μL of acetonitrile was added. Samples were vortexed for 5 minutes and then centrifuged for 10 minutes at 4,000 rpm at 4° C. Following centrifugation, 100 μL of each clear supernatant was transferred to a 96 well plate and analyzed with a fit-for-purpose LC-MS/MS method, with authentic samples of each analyte used for calibration and identification.
Data Analysis. Pharmacokinetic parameters were estimated using the non-compartmental analysis tool of Phoenix® WinNonlin software (Ver 8.0).

Data set [3] can be described thus: Stability in liver microsomes (Example 21), SD rat. Format: in vitro ADME. Particulars: male, pH 7.4, 0.5 mg/mL protein. The protocol:
General Procedure. Briefly, test compounds (final concentration 1 μM) were incubated in duplicate with liver microsomes from male animals of the indicated species (final protein concentration 0.5 mg/mL) in 50 mM sodium phosphate buffer (pH 7.4) with or without NADPH (1 mM). Total incubation volume was 500 μL. At 0, 5, 15, 30, and 60 min, aliquots of 50 μL were withdrawn, quenched with acetonitrile (150 μL), and analyzed for parent compound remaining using a fit-for-purpose LC-MS/MS method. Intrinsic clearance and half-life were calculated. Clearance values below zero were rounded to zero.
On the technique in general: Liver microsomes are a subcellular fraction often used to study metabolism.

Setting [4] is: rat brain, 1 mg/kg iv, read-out: t1/2 (iv).
The mark [5] stands for this setting: rat brain, 1 mg/kg po, read-out: t1/2 (po).
The mark [6] stands for this setting: rat plasma, 1 mg/kg iv, read-out: t1/2 (iv).
Where [7] appears, read: rat plasma, 1 mg/kg iv, read-out: AUC0-inf (iv) (converted).
Where [8] appears, read: rat plasma, 1 mg/kg po, read-out: t1/2 (po).
[9] abbreviates: rat plasma, 1 mg/kg po, read-out: AUC0-inf (po) (converted).
The mark [10] stands for this setting: rat brain, calculated based on brain exposure (AUC0-last).

In general, Cmax refers to the maximum level reached in the sampled fluid or tissue. In the case of `N[C@]1(c2ccc(F)cc2)CCCCC1=O` [Compound 1S, (S)-2-amino-2-(4-fluorophenyl)cyclohexan-1-one], the “immobility time in the FST relative to vehicle” value in data set [1] is “reduced immobility time”. Further, the half-life was determined as 4.09 h in data set [2] (setting [4]), 7.11 h in data set [2] (setting [5]), 2.58 h in data set [2] (setting [6]) and 3.88 h in data set [2] (setting [8]). Moreover, the Cmax was determined as 167 ng/g in data set [2] (rat brain, 1 mg/kg po) and 234 ng/mL in data set [2] (rat plasma, 1 mg/kg po). Further, the AUC(0-inf) was 805 ng·h/mL in data set [2] (setting [7]) and 1140 ng·h/mL in data set [2] (setting [9]). In addition, the “AUC0-inf (iv)” value in data set [2] (rat brain, 1 mg/kg iv) is 126462 ng·min/g. In data set [2] (rat brain, 1 mg/kg po), the “AUC0-inf (po)” value was 79272.6 ng·min/g. The F in data set [2] (setting [10]) is given as 62.7%; in data set [2] (rat plasma, based on AUC0-last), over 100%.

As a reminder, the microsomal CLint is the rate of metabolic loss divided by the concentration. In the case of `CN[C@@]1(c2ccc(F)cc2)CCCCC1=O` [Compound 2R, (R)-2-(4-fluorophenyl)-2(methylamino)cyclohexan-1-one], in data set [1], the “immobility time in the FST relative to vehicle” value is recorded as “reduced immobility time”. For the same compound, the microsomal CLint at 1 μM in data set [3] was determined as 16.2 µL/min/mg. Also, the half-life was determined as 0.0633 h in data set [2] (setting [4]), 0.99 h in data set [2] (setting [5]), 2.77 h in data set [2] (setting [6]) and 1.58 h in data set [2] (setting [8]). The Cmax in data set [2] (rat brain, 1 mg/kg po) amounted to 42.8 ng/g; in data set [2] (rat plasma, 1 mg/kg po) it was 17.7 ng/mL. The AUC(0-inf) in data set [2] (setting [7]) was 163 ng·h/mL; in data set [2] (setting [9]), 50.3 ng·h/mL. Besides, the “AUC0-inf (iv)” value in data set [2] (rat brain, 1 mg/kg iv) worked out at 27152.4 ng·min/g. For the same compound, in data set [2] (rat brain, 1 mg/kg po), the “AUC0-inf (po)” value was 4915.8 ng·min/g. For the same compound, the F is on record as 18.1% in data set [2] (setting [10]) and 31% in data set [2] (rat plasma, based on AUC0-last). For the same compound, the “brain exposure after oral administration compared to enantiomer 2S” value in data set [2] (rats) is on record as “substantially higher brain exposure”.

In the case of `CN[C@]1(c2ccc(F)cc2)CCCCC1=O` [Compound 2S, (S)-2-(4-fluorophenyl)-2-(methylamino)cyclohexan-1-one], the intrinsic clearance (microsomal CLint) at 1 μM in data set [3] turned out to be 14.1 µL/min/mg. In addition, the results for the half-life in data set [2] (setting [4]), in data set [2] (setting [6]) and in data set [2] (setting [8]) were 0.7 h, 0.7 h and 1.46 h, respectively. Also, the Cmax in data set [2] (rat brain, 1 mg/kg po) came to 47.6 ng/g; in data set [2] (rat plasma, 1 mg/kg po), 32.3 ng/mL. The AUC(0-inf) in data set [2] (setting [7]) is 186 ng·h/mL; in data set [2] (setting [9]) it was 37.8 ng·h/mL. The “AUC0-inf (iv)” value in data set [2] (rat brain, 1 mg/kg iv) was 68000.4 ng·min/g. In addition, the “AUC0-inf (po)” value in data set [2] (rat brain, 1 mg/kg po) came to 3067.2 ng·min/g. Further, the F in data set [2] (setting [10]) is given as 4.5%; in data set [2] (rat plasma, based on AUC0-last), 20%.
